Experiments:
Format in all cases: in vivo
[1] = test system: Stoneville cotton variety; experiment: Field study in Mississippi on Stoneville cotton: fruit (boll) set; conditions: 10 grams per acre, applied once on July 8th, with 5.0% calcium and 1.25% zinc
Procedure: A field study was conducted in the State of Mississippi on a Stoneville cotton variety, in which the physiological characteristics of plants treated with the plant growth regulator of the present invention (a mixture of CCC, WSCP, and CC), were compared to the characteristics of untreated plants, or “checks”, and the characteristics of plants treated with PIX.
The formulation of the present invention used in Example 2 was as follows: the ratio of WSCP to CCC was reduced to 2.7:1, and the ratio of CC (Choline Chloride) to CCC was 0.6:1. Also added to the formulation was 5.0% calcium and 1.25% zinc.
The rate of PIX application was 10 grams per acre, applied once on July 8th of the study year. The rate and timing of this application was consistent with the manufacturer's label recommendation. The rate of application of the plant growth regulator of the present invention was 2.5 grams per acre, applied once on June 28th and again on July 18th. As with Example 1, the formulations of PIX used in Example 2, included 5.0% calcium and 1.25% zinc.
The physiological characteristics under study determine the effectiveness of the chemical products on fruit, or boll, set. The first fruiting position on a reproductive branch is the most important plant feature that affects expected plant yield. Consequently, the higher the percentage of fruit set at the first fruiting position the higher the fruit yield potential.

cotton = experiment: Field trials in Greece: plant growth regulating effects (plant height); conditions: 20.0 gm/Ha
Description: Field trials were established in the country of Greece to determine the plant growth regulating effects of several products, including the chemical formulation of the present invention. The particular formulation of the present invention used in these trials, was as follows: 1.0 parts CCC; 2.7 parts WSCP; 0.6 parts CC; 27 parts Calcium; and, 6.75 parts Zinc (parts per weight). All of the chemical applications were applied at the same time, and there were three replications at each trial site.

MAXXA cotton = experiment: Study on MAXXA cotton: effects on plant growth and development; conditions: 10 gm/A
Procedure: A study was conducted on MAXXA cotton to determine the effects of Mepiquat Chloride and the combination of (CCC) chlormequat chloride/WSCP on plant growth and development.
In this example, the amount of WSCP used in each chemical treatment was constant, and the amount of CCC varied from 2.5 to 5.0 grams/acre. The corresponding ratios of WSCP and CCC were as follows: at the 2.5 gram/acre rate the ratio of WSCP to CCC was 30:1; at the 5.0 gram/acre rate the ratio of WSCP to CCC was 15:1. It should also be noted that 5.0% calcium and 1.25% zinc were also added to each of the mixtures.

## C[N+]1(C)CCCCC1.[Cl-] [Mepiquat Chloride, N,N-dimethylpiperidinium chloride]
[1]
  First Fruiting Branch: 6
  Percentage Of First Fruiting Positions (Nodes 6-13): 76.3%
  Total Percentage Of Fruit Set (Nodes 6-13): 65.0%
cotton; Site 1
  Plant Height: 10.00 Cm
cotton; Site 2
  Plant Height: 27.33 Cm
cotton; Site 3
  Plant Height: 7.78 Cm
MAXXA cotton
  Average Bottom 5 FPB (First Position Bolls As A Percentage): 60.0 Percentage
  Average Fruiting Branches: 15.7
  Average Nodes: 21.7
  Average Plant Height: 35.9″
  Average Top 5 FPB (First Position Bolls As A Percentage): 43.0 Percentage
  Average Vegetative Nodes: 6.1

— patent US6518221B1, “Plant growth regulator and method for using same” (Wilbur-Ellis Company, priority 2002, dated 2003)
